Laboratory results from patent publication US20040234517A1, “Compositions and methods for diagnosing and treating asthma or other allergic or inflammatory diseases” (WYETH, priority 2003, published 2004).
Like-named read-outs stand apart in the source and are kept apart here.

Key:
[1] = system: arginase; assay: arginase activity in internal anal sphincter
[2] = system: arginase; details: intact cells; cited from earlier work
[3] = system: arginase; assay: arginase activity of murine macrophages (hydrolysis of L-arginine to L-ornithine); format: cell-based; details: unstimulated murine macrophages
Excerpt: Stimulation of murine macrophages with interferon-gamma and lipopolysaccharide (IFN-gamma+LPS) results in clear expression of an inducible NOS (iNOS) and to an increase in arginase activity.

[4] = biological target: arginase; details: read-out: IC50 hydrolysis of L-arginine to L-ornithine; unstimulated murine macrophages (Tenu et al.); cited from earlier work
[5] = biological target: arginase; details: IFN-gamma+LPS-stimulated macrophage; cited from earlier work
[6] = biological target: iNOS (Mus musculus, UniProt P29477); details: cited from earlier work
[7] = system: IL-13; assay: lung ARG1 mRNA expression after ovalbumin allergen challenge; format: in vivo, Balb/c mice; details: mouse lung
Procedure: Balb/c mice were immunized by an intraperitoneal (i.p.) injection of 10 μg of OVA (Sigma, St. Louis, Mo.) in 200 μl of PBS on day 0. On days 14 and 25 mice were anesthetized with a mixture of ketamine and xylazine (45 and 8 mg/kg, respectively) and challenged intratracheally with 50 μl of a 1.5% solution of OVA or an equivalent volume of PBS. Mice were injected i.p. either with 100 μl of PBS, hIgG (400 μg/ml) or sIL-13α2-Fc (400 μg/ml) on days 24, 25 and 27. Purification of hIgG was carried according to Urban et al., Immunity 8(2): […], 1998. Lungs were collected and snap frozen for RNA isolation on day 28.
To identify changes in mRNA concentration dependent on IL-13 mediated signal transduction, two of the OVA-challenged mice were treated with three intraperitoneal injections of the soluble IL-13 receptor fusion protein, sIL-13Rα2-Fc, prior to and during the course of the allergic challenge. As control for the Fc-moiety of the receptor fusion protein, two of the OVA-challenged mice were similarly treated with intraperitoneal administration of hIgG. […]
Balb/C-treated and untreated mice were sensitized to OVA, treated with PBS, rIL-13 or sIL13Rα2.Fc as described in FIG. 1. Total lung RNA was isolated and analyzed for ARG1 expression as described in Example 2. The mRNA frequency is expressed as parts per million.

[8] = system: IL-13; assay: OVA-challenge asthma model: mucus production and airway hyperresponsiveness; format: in vivo, mouse; details: FIG. 12 legend
Excerpt: It is generally accepted that allergic asthma is initiated by an inappropriate inflammatory reaction to airborne allergens. […] One murine model of asthma involves sensitization of the animal to ovalbumin (OVA) followed by intratracheal delivery of the OVA challenge. […] The cytokine IL-13, expressed by basophils, mast cells, activated T cells and NK cells, plays a central role in the inflammatory response to OVA in mouse lungs. […] Thus, IL-13 mediated signaling is sufficient to elicit all four asthma-related pathophysiological phenotypes and is required for the hypersecretion of mucous and induced AHR in the mouse model.
FIG. 12 is a graphical representation showing that ARG1 mRNA expression increases following direct pulmonary instillation of rIL-13 or intratracheal Ovalbumin allergen challenge. Blockade of IL-13 signaling by administration of sIL13Rα2.Fc inhibits 67% of induced Arg1 mRNA expression. Blockade of IL-13 using the soluble receptor sIL13Rα2.Fc inhibits the allergen induced mucus production and airway hyperresponsiveness (AHR).

[9] = system: IL-13; details: mouse model, background; cited from earlier work

## N[C@@H](CCCCB(O)O)C(=O)O [ABH, 2(S)-amino-6-boronohexanoic acid]
[1]
  potency relative to L-NOHA in inhibiting arginase activity: approximately 250 times

## NCCC[C@](N)(C(=O)O)C(F)F [DFMO, α-difluoromethylornithine]
[2]
  effect on the flux of L-arginine through arginase: inhibitive effect

## N=C(NO)NCC[C@H](N)C(=O)O [nor-NOHA, N(omega)-hydroxy-L-nor-arginine]
[3]
  potency relative to L-NOHA: about 40 fold
[4]
  IC50: 12 µM
[5]
  IC50: 10 µM
[6]
  substrate or inhibitor for iNOS: neither a substrate nor an inhibitor

B1: sIL13Rα2.Fc: soluble IL-13 receptor fusion protein, a soluble IL-13 antagonist (protein)
chain: DTEIKVNPPQDFEIVDPGYLGYLYLQWQPPLSLDHFKECTVEYELKYRNIGSETWKTIITKNLHYKDGFDLNKGIEAKIHTLLPWQCTNGSEVQSSWAETTYWISPQGIPETKVQDMDCVYYNWQYLLCSWKPGIGVLLDTNYNLFYWYEGLDHALQCVDYIKADGQNIGCRFPYLEASDYKDFYICVNGSSENKPIRSSYFTFQLQNIVKPLPPVYLTFTRESSCEIKLKWSIPLGPIPARCFDYEIEIREDDTTLVTATVENETYTLKTTNETRQLCFVVRSKVNIYCSDDGIWSEWSDKQCWEGEDLSKKTLLR
modifications: left off: a dimerising Fc or GST
notes: soluble IL-13 receptor fusion protein, a soluble IL-13 antagonist
[7]
  inhibition of induced Arg1 mRNA expression: 67%
[8]
  allergen induced mucus production and airway hyperresponsiveness (AHR): inhibits
[9]
  OVA-challenge induced goblet cell mucus synthesis and AHR to acetylcholine: completely blocked
